Results: ChEMBL document CHEMBL1136702, “Design and synthesis of S-(-)-2-[[4-(napht-1-yl)piperazin-1-yl]methyl]-1,4-dioxoperhydropyrrolo[1,2-a]pyrazine (CSP-2503) using computational simulation. A 5-HT1A receptor agonist” (Bioorg Med Chem Lett, 2003)

Legend:
[1] = molecular target: T1, 5-hydroxytryptamine receptor 1A (Rattus norvegicus, UniProt P19327); test: Binding affinity towards 5-HT 1A receptor in rat cerebral cortex membranes using [3H]8-OH-DPAT as radioligand; format: cell membranes, Membrane
T1 sequence (P19327 whole entry): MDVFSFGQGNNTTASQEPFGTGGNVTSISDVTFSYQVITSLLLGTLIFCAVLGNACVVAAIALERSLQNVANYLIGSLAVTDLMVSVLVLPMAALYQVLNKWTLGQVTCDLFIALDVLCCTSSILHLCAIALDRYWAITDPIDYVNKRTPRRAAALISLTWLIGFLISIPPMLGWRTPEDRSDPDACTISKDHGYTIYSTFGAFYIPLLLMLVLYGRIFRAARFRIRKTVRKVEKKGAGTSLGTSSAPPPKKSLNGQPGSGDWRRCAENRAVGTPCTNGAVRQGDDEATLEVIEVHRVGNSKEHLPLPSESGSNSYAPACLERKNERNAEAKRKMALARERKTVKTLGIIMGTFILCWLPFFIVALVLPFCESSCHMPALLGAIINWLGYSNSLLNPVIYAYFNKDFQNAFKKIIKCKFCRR

[2] = molecular target: T2, Adrenergic receptor alpha-1 (Rattus norvegicus, UniProt P15823+P23944+P43140); test: Binding affinity towards Alpha-1 adrenergic receptor in rat cerebral cortex membranes using [3H]prazosin as radioligand; format: cell membranes, Membrane
T2 sequence (P15823 whole entry): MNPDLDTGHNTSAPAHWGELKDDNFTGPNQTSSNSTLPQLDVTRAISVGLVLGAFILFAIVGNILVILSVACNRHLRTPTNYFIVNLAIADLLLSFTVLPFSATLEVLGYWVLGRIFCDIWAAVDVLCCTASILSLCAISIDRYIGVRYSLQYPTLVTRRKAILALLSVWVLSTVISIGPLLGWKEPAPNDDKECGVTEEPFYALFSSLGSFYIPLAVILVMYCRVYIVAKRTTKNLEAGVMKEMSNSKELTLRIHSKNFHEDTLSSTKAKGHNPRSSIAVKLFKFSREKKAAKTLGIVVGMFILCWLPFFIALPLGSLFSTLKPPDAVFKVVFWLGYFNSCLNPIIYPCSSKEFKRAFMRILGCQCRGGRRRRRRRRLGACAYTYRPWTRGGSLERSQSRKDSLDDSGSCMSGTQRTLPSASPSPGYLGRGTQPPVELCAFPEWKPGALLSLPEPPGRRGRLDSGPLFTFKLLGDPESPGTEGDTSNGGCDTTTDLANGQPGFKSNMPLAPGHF
T2 sequence (P23944 whole entry): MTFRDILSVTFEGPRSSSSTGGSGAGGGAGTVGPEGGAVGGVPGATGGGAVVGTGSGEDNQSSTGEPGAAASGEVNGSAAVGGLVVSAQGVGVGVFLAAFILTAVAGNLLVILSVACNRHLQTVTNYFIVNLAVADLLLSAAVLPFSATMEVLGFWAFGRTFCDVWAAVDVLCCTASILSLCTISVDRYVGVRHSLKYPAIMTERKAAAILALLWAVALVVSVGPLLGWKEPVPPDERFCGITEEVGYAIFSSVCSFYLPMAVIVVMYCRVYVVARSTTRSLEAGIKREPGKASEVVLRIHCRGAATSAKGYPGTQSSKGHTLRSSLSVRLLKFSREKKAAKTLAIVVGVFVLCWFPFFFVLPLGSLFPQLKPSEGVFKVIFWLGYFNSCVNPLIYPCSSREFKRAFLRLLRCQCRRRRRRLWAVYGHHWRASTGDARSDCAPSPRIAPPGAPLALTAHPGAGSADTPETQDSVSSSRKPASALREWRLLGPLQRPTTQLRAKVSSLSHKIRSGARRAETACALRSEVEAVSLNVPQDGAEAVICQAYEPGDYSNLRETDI
T2 sequence (P43140 whole entry): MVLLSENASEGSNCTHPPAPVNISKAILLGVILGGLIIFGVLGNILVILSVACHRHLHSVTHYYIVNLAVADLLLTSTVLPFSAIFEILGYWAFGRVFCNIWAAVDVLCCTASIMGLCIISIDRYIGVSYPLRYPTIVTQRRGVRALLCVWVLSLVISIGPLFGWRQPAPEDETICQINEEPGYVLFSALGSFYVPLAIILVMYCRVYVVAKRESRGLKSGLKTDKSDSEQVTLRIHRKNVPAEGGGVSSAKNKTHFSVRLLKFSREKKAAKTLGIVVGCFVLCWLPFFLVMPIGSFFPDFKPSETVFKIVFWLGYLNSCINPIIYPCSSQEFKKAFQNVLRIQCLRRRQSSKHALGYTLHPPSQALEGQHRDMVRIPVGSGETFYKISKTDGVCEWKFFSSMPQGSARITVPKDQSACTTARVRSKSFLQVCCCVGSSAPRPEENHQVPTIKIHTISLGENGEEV

[3] = molecular target: 5-hydroxytryptamine receptor 7 (Rattus norvegicus, UniProt P32305); test: Binding affinity towards 5-HT 7 receptor in rat hypothalamus membranes using [3H]5-CT as radioligand; format: cell membranes, Membrane
[4] = molecular target: GABA-A receptor; anion channel; test: Displacement of [3H]flunitrazepam from GABA-A benzodiazepine receptor of rat cerebral cortex membranes; format: cell membranes, Membrane
[5] = molecular target: 5-hydroxytryptamine receptor 2A (Rattus norvegicus, UniProt P14842); test: Binding affinity towards 5-HT 2A receptor in rat cerebral frontal cortex membranes using [3H]ketanserin as radioligand; format: tissue-based, Membrane
[6] = molecular target: 5-hydroxytryptamine receptor 4 (Rattus norvegicus, UniProt Q62758); test: Binding affinity towards 5-HT 4 receptor in rat striatum membranes using [3H]GR-113808 as radioligand; format: cell membranes, Membrane
D(2) dopamine receptor = D(2) dopamine receptor (Rattus norvegicus, UniProt P61169); test: Binding affinity towards dopamine D2 receptor in rat striatum membranes using [3H]raclopride as radioligand; format: cell membranes, Membrane
[7] = molecular target: Sodium-dependent serotonin transporter (Rattus norvegicus, UniProt P31652); test: Binding affinity towards 5-HT transporter in rat cerebral cortex membranes using [3H]paroxetine as radioligand; format: cell membranes, Membrane
Sequence of Sodium-dependent serotonin transporter (P31652 whole entry): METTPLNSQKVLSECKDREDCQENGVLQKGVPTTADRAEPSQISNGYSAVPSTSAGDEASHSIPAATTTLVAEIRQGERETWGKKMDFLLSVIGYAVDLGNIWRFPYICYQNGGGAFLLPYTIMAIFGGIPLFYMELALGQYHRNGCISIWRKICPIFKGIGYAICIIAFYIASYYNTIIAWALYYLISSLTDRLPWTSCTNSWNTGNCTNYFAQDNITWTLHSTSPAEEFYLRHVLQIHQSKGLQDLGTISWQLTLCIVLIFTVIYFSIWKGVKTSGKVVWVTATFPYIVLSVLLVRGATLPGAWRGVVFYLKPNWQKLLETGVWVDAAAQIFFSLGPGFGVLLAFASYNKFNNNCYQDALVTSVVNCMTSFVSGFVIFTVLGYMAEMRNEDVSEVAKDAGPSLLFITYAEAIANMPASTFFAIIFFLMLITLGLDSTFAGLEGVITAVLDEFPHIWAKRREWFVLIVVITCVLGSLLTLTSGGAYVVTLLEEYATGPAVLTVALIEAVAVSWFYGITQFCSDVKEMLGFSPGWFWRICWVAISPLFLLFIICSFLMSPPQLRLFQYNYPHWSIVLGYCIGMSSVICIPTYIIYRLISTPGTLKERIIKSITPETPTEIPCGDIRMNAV

Sequence of 5-hydroxytryptamine receptor 4 (Q62758 whole entry): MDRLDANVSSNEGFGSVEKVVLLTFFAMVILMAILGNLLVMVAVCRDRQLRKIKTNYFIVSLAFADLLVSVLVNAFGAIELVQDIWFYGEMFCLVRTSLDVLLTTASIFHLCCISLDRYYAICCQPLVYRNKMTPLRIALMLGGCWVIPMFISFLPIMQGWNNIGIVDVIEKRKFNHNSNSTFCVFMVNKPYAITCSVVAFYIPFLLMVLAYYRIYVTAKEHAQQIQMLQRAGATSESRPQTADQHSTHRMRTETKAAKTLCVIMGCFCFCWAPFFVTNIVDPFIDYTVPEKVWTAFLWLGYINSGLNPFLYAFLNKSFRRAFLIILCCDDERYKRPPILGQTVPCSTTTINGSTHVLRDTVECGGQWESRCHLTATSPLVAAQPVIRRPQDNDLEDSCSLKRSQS
Sequence of D(2) dopamine receptor (P61169 whole entry): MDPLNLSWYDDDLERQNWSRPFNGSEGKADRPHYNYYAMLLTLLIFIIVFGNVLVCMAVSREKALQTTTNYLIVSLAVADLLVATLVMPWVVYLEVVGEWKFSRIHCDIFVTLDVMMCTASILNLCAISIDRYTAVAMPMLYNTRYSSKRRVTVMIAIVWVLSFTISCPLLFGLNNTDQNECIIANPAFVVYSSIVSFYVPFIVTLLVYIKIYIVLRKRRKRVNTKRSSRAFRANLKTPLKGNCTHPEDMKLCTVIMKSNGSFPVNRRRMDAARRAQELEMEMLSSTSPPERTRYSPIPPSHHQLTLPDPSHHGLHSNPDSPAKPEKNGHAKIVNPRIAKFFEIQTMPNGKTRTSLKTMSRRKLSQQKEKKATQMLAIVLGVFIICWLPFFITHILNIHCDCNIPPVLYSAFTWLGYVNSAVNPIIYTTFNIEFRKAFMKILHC
Sequence of 5-hydroxytryptamine receptor 2A (P14842 whole entry): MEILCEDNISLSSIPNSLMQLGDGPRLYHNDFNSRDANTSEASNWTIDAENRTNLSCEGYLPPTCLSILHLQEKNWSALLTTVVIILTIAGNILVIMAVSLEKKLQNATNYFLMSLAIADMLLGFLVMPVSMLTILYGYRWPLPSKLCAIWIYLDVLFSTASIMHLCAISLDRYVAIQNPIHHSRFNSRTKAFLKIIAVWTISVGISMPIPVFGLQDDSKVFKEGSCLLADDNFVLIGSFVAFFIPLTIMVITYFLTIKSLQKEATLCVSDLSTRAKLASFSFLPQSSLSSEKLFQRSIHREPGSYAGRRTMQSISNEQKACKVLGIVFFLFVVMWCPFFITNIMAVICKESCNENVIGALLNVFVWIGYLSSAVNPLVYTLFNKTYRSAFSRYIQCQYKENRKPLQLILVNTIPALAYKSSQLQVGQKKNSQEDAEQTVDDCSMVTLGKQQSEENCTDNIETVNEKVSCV
Sequence of 5-hydroxytryptamine receptor 7 (P32305 whole entry): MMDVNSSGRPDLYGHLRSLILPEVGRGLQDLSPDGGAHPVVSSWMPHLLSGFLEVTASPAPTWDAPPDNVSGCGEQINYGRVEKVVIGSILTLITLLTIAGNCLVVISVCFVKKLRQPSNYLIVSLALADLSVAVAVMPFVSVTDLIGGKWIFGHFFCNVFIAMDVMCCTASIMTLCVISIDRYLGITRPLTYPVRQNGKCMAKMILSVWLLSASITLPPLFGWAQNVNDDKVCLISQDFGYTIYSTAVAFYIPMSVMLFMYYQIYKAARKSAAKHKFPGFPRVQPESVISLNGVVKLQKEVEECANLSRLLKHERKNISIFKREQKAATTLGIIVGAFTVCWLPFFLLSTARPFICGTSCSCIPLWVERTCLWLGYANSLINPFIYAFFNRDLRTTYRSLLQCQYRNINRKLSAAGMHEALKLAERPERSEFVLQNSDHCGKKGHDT

SMILES	Ki [1]	Ki [2]	also measured
O=C1C2CCCCN2C(=O)N1CN1CCN(c2cccc3c2COCCO3)CC1 (configuration not stated)	6.1 nM	> 1000 nM	
O=C1C2CCCN2C(=O)CN1CN1CCN(c2cccc3c2COCCO3)CC1 (configuration not stated)	12.3 nM	> 1000 nM	
O=C1C2CCCCN2C(=O)N1CN1CCN(c2cccc3c2OCCO3)CC1 (configuration not stated)	9.3 nM	> 1000 nM	
O=C1C2CCCN2C(=O)N1CN1CCN(c2cccc3ccccc23)CC1 (configuration not stated)	10.4 nM	> 1000 nM	

Compounds with a lower Ki [1], results first:

Ki [1]	Ki [2]	SMILES	also measured
4.1 nM	> 1000 nM	O=C1C2CCCN2C(=O)CN1CN1CCN(c2cccc3ccccc23)CC1 (configuration not stated)	Ki [3]: 101 nM; Ki [4]: > 10000 nM; Ki [5]: 13.5 nM; Ki [6]: > 10000 nM; Ki (D(2) dopamine receptor): 192 nM; Ki [7]: 976 nM
2.4 nM	64.9 nM	O=C1C2CCCN2C(=O)N1CCCCN1CCN(c2cccc3ccccc23)CC1 (configuration not stated)	
4.1 nM	10000 nM	O=C1C2CCCN2C(=O)N1CN1CCN(c2cccc3[nH]cnc23)CC1 (configuration not stated)	
5.6 nM	> 1000 nM	O=C1C2CCCCN2C(=O)N1CN1CCN(c2cccc3ccccc23)CC1 (configuration not stated)	
